# Reference: patent US10329304B2, “Compounds and methods for inhibition of hedgehog signaling and phosphodiesterase” (Vanderbilt University, priority 2014, dated 2019)
# Entries after “also recorded” stand apart in the source; their conditions may differ. Like-named read-outs stand apart in the source and are kept apart here.
# Legend:
# PKA activation = assay: Immunostaining of autophosphorylated PKA catalytic subunit in NIH3T3 cells; format: cell-based; conditions: SAG-stimulated NIH3T3 cells, Egm 5 μM, Rolipram 10 μM
# Procedure: NIH3T3 cells were plated on Poly-D-Lysine-coated glass coverslips and were cultured at 37° C., 5% CO2 in DMEM medium containing 10% fetal bovine serum until reaching 75% confluency. For one set of experiments, cells were then transfected with VSV-tagged PDE4D3 plasmid (gift from Miles Houslay, University of Glasgow, Scotland, UK) using Fugene6 transfection reagent (Roche, Indianapolis, Ind.) per manufacturer's protocol. Afterward, cell medium was replaced with DMEM/0.5% FBS containing either 5 μM eggmanone or DMSO and incubated overnight at 37° C., 5% CO2. Cells were fixed in 4% PFA at room temperature for 10 minutes prior to permeabilization, blocking, and staining with primary antibodies against Arl13b (gift of Tamary Caspary, Emory University, Atlanta, Ga.) and VSV (AbCam, Cambridge, Mass.). Fluorescent immunocytochemistry was performed using species-specific, secondary antibodies (Jackson Immunoresearch, West Grove, Pa.). For additional immunocytochemistry experiment, cells were treated with 20 nM SAG in the presence or absence of 5 uM Eggmanone. After overnight incubation, cells were washed with PBS, fixed for 10 minutes in 4% PFA, permeabilized 20 minutes at −20C with cold methanol, blocked with PBS/1% BSA, and incubated with primary antibodies to phospho-PKA catalytic domain Thr197 (Cell Signaling, Danvers, Mass.) and then to Arl13b. An additional overnight blocking step using unconjugated rabbit IgG was required between primary antibody incubations since both antibodies were produced in rabbit. Fluorescent conjugated secondary antibodies were used for visualization. Data analysis was performed in part through the use of the VUMC Cell Imaging Shared Resource.
# Using ImageJ software (National Institutes of Health, developed by W. Rasband), a region of interest was created using the magic wand tool on Arl13b channel and transposed to the Gli2 channel, and integrated density was measured and reported as arbitrary units (a.u.). For phospho-PKA, using ImageJ, a line selection tool was used to select a line projected through the length of the primary cilia and an equal length beyond. The intensity values were potted and the cumulative florescence (area under the curve) was calculated for three cilia, blindly, for each treatment. These values for cilia and pericilia domain were analyzed by a two tailed students t-test. For correlation analysis, correlation coefficient for intensity of gamma-tubulin and phosphor-PKA were calculated and compared among treatments with students t-test.
# mouse aorta = assay: Myography of cannulated mouse aorta
# Text: For myography, to test the vascular tone for presense of downstream or off target effects, mouse aorta was mounted and cannulated on a closed system. A physiological buffer (with respect to pH, CO2, and temperature) was circulated through the vessel.
# [1] = test system: total cellular cAMP levels; assay: cAMP assay (total cellular cAMP, EIA chemiluminescence); format: cell-based
# Procedure: Shh-Light2 cells were seeded in a 96-well plate and incubated overnight. Varying concentrations of Rolipram or Eggmanone (0.013 uM-30 uM) or DMSO only were added to the cells in the absence of serum and incubated 30 minutes, at which time forskolin was added for a final concentration of 1 uM. After an additional 15 minutes, cells were washed with PBS and assayed for cAMP levels using EIA based chemiluminescence kit according to the manufacturer's protocol (Cell Signaling Technologies, Danvers, Mass.).
# cAMP = assay: FRET-based cAMP sensors in NIH3T3 cells; format: cell-based; conditions: 2 μM
# Text: To visualize changes in cAMP concentrations in individual cells and cellular regions, we utilized two distinct FRET (fluorescence resonance energy transfer)-based cAMP sensors: the Epac-FRET sensor (mTurquoiseΔ-Epac(CD, ΔDEP)-cp173 Venus-Venus)^35, which detects cytosolic cAMP concentration and the PKA-based cAMP sensor (PKAC-YFP and PKARII-CFP combination), which has been used to document changes in local cAMP levels in the centrosome and basal body.
# [2] = test system: Hedgehog signaling (Gli-Luc reporter); assay: Hh Gli-Luciferase reporter assay in Shh-Light2 cells; format: cell-based, mouse; conditions: Shh-conditioned media
# How it was run: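 Shh-Light2 cells with stable Gli-luciferase were stimulated by Shh-conditioned medium (or 3 μM purmorphamine or 20 nM SAG), or transfected with Gli-2, PDE4D3 or DN-PDE4D3. Overnight compound incubation preceded Steady-Glo read-out, normalized to CellTiter-Glo.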
# Hh signaling = Hh signaling inhibition (assay not named, data not shown); format: cell-based
# TM3-Gli-Luc cells = assay: TM3-Gli-Luc cell viability (Cell Titer Glo, LD50); format: cell-based
# Procedure: On the day of cell plating, 96-well plates were coated with 50 μL/well of sterile 0.1% gelatin for 5 minutes then aspirated and replaced with 50 μL/well of TM3 Culture Medium. TM3-Gli-Luc cells were seeded at a density of 5,000 cells/well in TM3 Culture Medium and incubated for 24 hours. A master mix of 20 nM SAG in TM3Luc Medium was prepared, and small molecule solutions were prepared by adding the desired amount of compound from 10 mM DMSO stock to TM3Luc Medium containing 20 nM SAG. Negative control was prepared by adding an equi-volume amount of DMSO as compared to small molecule treated conditions to TM3Luc Medium not containing SAG. Cell plating medium was aspirated and replaced with 100 μL/well of prepared small molecule-containing media, and plates were incubated for 48 hours before proceeding to luciferase activity and cell viability reading.
# TM3Luc Medium from compound treated plates was aspirated and replaced with 82 μL/well of Glo Lysis Buffer (Promega, Madison, Wis., USA), and plates were shaken at 300 rpm and room temperature for 12 minutes. Lysate was split between two white 96-well plates, 45 μL/well and 25 μL/well for luciferase reading and cell viability respectively. For luciferase activity monitoring, 45 μL/well of Steady Glo (Promega, Madison, Wis., USA) was added to 45 μL/well of cell lysate, incubated at room temperature for 5 minutes, then luminescence was measured on a Turner Biosystems Modulus Microplate Reader (Sunnyvale, Calif., USA) with an integration time of 0.5 seconds. For cell viability measurement, 25 μL/well of Cell Titer Glo (Promega, Madison, Wis., USA) (prepared by 1:10 dilution with Glo Lysis Buffer) was added to 25 μL/well of cell lysate, incubated at room temperature for 5 minutes, then luminescence was measured as above.
# All raw data was divided by the average of positive control cell titer data to arrive at percent cells remaining compared to positive control. […] At least two independent assays tested on separate days were averaged to provide LD50±standard error of the mean.
# [3] = Lipophilic efficiency (LipE = pEC50 − cLogP) and cLogP
# How it was run: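 pEC50 came from TM3-Gli-Luc Gli-responsive luciferase reporter cells stimulated with 20 nM SAG, with non-specific cytotoxicity monitored in parallel. LipE was calculated by subtracting cLogP from pEC50.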
# Ptch1 transcription = assay: Sufu−/− mouse embryonic fibroblasts qRT-PCR; format: cell-based
# Text: (§1) In light of EGM1's ability to halt Hh transcriptional activity at a node downstream of the negative regulator Sufu, and thus also downstream of Smo, we sought to confirm mode of action retention with our most promising analogs. Therefore, we employed Sufu−/− mouse embryonic fibroblasts (MEF) that display constitutively active transcription of Hh target genes Gli1 and Ptch1 and monitored the ability of our optimized analogs to repress signaling via quantitative reverse transcription-PCR (qRT-PCR). […] We then evaluated improved analogs from multiple structural classes including those from Table 1 with cyclohexylthiophene cores as well as from Table 13 with structurally distinct core modifications.
# (§2) Sufu^−/− cells were seeded into 12-well plates at a density of 100,000 cells/well in D10 FBS and incubated for 24 hours. Small molecule solutions were prepared by adding the desired amount of compound from 10 mM DMSO stock to D0.5 FBS. Negative control was prepared by adding an equi-volume amount of DMSO to D0.5 FBS as compared to small molecule treated conditions. Cell plating medium was aspirated and replaced with 1 mL of prepared small molecule-containing media, and plates were incubated for 24 hours before proceeding to RNA isolation.
# (§3) Cells were washed 1× with 1× phosphate-buffered saline (PBS) then RNA was isolated using the Qiagen RNeasy Mini Kit (Qiagen, Germantown, Md., USA) according to the manufacturer's protocol, eluting RNA from the spin column with 30 μL of RNase-free water. RNA was placed on ice and immediately subjected to reverse transcription. Remaining RNA was stored at −80° C.
# (§4) Reverse transcription polymerase chain reaction (RT-PCR) was performed with the Applied Biosystems High Capacity cDNA Reverse Transcription Kit (ThermoFisher Scientific, Waltham, Mass., USA) using an Eppendorf MasterCycler. Each 20 μL reaction contained 0.5 μg of total RNA, 2 μL of 10×RT Buffer, 0.8 μL of 25×dNTP Mix (100 mM), 2 μL of 10×RT Random Primers, 1 μL of MultiScribe® Reverse Transcriptase (50 U/μL), 1 μL of Recombinant RNasin® Ribonuclease Inhibitor (40 U/μL) (Promega, Madison, Wis., USA), and nuclease-free water. Reverse transcription was performed with the following program: 25° C. for 10 minutes, 37° C. for 120 minutes, and 85° C. for 5 minutes. The cDNA was subjected to quantitative real-time PCR (Q-PCR) or stored at −20° C.
# (§5) Quantitative real-time PCR was performed on an Applied Biosystems 7900 HT Fast Real Time PCR System in 384-well format. Each cDNA sample was assayed in triplicate with both probe of interest and control probe. Master mixes for each probe were prepared corresponding to 10 μL of Applied Biosystems TaqMan Universal PCR Master Mix (ThermoFisher Scientific, Waltham, Mass., USA), 1 μL of primer, and nuclease-free water corresponding to a volume providing 20 μL reactions when loading an average of 50 ng of cDNA. Quantitative real-time PCR was run with the following thermal cycling protocol: 50° C. for 2 min., 95° C. for 10 min., and 40 cycles of 95° C. for 15 seconds, 60° C. for 1 min., then fluorescence reading. The following FAM probes were purchased from Life Technologies (Carlsbad, Calif., USA): mouse GAPDH, Mm99999915_g1; mouse Gli1, Mm00494646_g1; mouse Ptch1, Mm01306905_m1.
# (§6) Quantitative real-time PCR data for Hh signaling inhibition was quantitated using the ΔΔCt method. Control probe values were subtracted from probe of interest values to arrive at the ΔCt value. The ΔCt value was transformed by 2-^ΔCt to arrive at the ΔΔCt value. All ΔΔCt values were divided by the average negative control ΔΔCt value to provide percent Hh signaling activity. Percent inhibition values were derived by calculating the inverse of percent activity. Data is reported as mean±standard error of the mean (SEM), representing at least two biological replicates, each quantitated in triplicate.
# Gli1 transcription = assay: Sufu−/− mouse embryonic fibroblasts qRT-PCR; format: cell-based
# Text: as §1, §2, §3, §4, §5, §6
# [4] = test system: Hedgehog signaling (Gli-Luc reporter); conditions: read-out: reported EC50 in the Shh-LIGHT2 reporter line; cited from earlier work
# [5] = test system: Hedgehog signaling (TM3-Gli-Luc); assay: TM3-Gli-Luc luciferase reporter assay stimulated with 20 nM SAG; format: cell-based; conditions: for EC50: read-out: TM3-Gli-Luc EC50
# How it was run: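 TM3-Gli-Luc cells on 0.1% gelatin in DMEM/F12 with 2.5% FBS, treated 48 h with compound plus 20 nM SAG. Steady-Glo luminescence normalized to CellTiter-Glo viability, DMSO-only (no SAG) background subtracted, percent of SAG control. EC50 averaged from ≥2 independent days ±SEM.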
# [6] = Sufu−/− MEF, qRT-PCR, compounds tested at 10 μM, normalized to DMSO, mean ± SEM
smiles,measurement,setting,value
"COc1ccc(C2CNC(=O)C2)cc1OC1CCCC1 (centres unmarked) [rolipram, reference compound]","PKA activation (phospho-PKA-C staining), spatial distribution",PKA activation,more diffuse increase in cytoplasmic phospho-PKA levels; also recorded: more diffuse increase in phospho-PKA staining
same,"PKA activation (phospho-PKA-C staining), spatial distribution",PKA activation; listed as Rolipram,increases PKA activation more diffusely
same,Vessel diameter after pre-constriction,mouse aorta,caused the vessel to dilate
same,Total cellular cAMP levels,[1],substantially; also recorded: elicited robust cAMP accumulation
same,Total cellular cAMP levels,[1]; listed as Rolipram,increased total cellular cAMP levels
same,Cytosolic FRET signal (Epac-FRET sensor),cAMP,significantly increased the FRET signal throughout the cell
same,Sonic hedgehog (SHH)-responsive Gli-luciferase reporter activity,[2],did not bring the reporter activity down to the baseline even at very high concentrations
same,Sonic hedgehog (SHH)-responsive Gli-luciferase reporter activity,[2]; listed as Rolipram,incomplete even at high concentrations
O=C(Nc1c(Cl)cncc1Cl)c1ccc(OC(F)F)c(OCC2CC2)c1 [Roflumilast],Potency for Hh signaling inhibition,Hh signaling,micromolar potency
"CN(C)c1ccccc1CN1CCCN(Cc2ccccc2N(C)C)C1c1ccncc1 [GANT-61, reference compound]",TM3-Gli-Luc LD50,TM3-Gli-Luc cells,>50 µM
same,LipE,"[3]; Calculated as pEC50 - cLogP, Molinspiration Cheminformatics",1.34
same,LipE,"[3]; pEC50 - cLogP, Table 14",1.34
same,inhibition of Ptch1 transcription,Ptch1 transcription; 10 μM,approximately 50%
same,Sufu−/− % Inh. Ptch1 mRNA,Ptch1 transcription; [6],52.8 ± 2.7%
same,inhibition of Gli1 transcription,Gli1 transcription; 10 μM,approximately 50%
same,Sufu−/− % Inh. Gil1 mRNA,Gli1 transcription; [6],43.8 ± 5.2%
same,EC50,[4],~5 µM
same,Hh inhibitory activity / potency in words,[5]; 20 nM SAG,slightly higher than the reported
same,EC50,"[5]; 20 nM SAG, mean ± standard error of the mean",9.27 ± 1.8 µM
same,EC50,"[5]; TM3-Gli-Luc reporter line stimulated with 20 nM SAG, mean ± SEM, Table 14",9.27 ± 1.8 µM
